This is an account of results in US20160102073A1, “2-HYDROXYMETHYL-SUBSTITUTED OREXIN RECEPTOR ANTAGONISTS” (MERCK SHARP & DOHME CORP., priority 2013, published 2016).

Assay [1] concerns the target T1, human orexin-2 receptor (hOX2R) (Homo sapiens, UniProt O43614).
T1 construct: expressed in transfected cells; host or cells: Chinese hamster ovary (CHO) cells, grown under G418 selection
T1 sequence (O43614 1-444): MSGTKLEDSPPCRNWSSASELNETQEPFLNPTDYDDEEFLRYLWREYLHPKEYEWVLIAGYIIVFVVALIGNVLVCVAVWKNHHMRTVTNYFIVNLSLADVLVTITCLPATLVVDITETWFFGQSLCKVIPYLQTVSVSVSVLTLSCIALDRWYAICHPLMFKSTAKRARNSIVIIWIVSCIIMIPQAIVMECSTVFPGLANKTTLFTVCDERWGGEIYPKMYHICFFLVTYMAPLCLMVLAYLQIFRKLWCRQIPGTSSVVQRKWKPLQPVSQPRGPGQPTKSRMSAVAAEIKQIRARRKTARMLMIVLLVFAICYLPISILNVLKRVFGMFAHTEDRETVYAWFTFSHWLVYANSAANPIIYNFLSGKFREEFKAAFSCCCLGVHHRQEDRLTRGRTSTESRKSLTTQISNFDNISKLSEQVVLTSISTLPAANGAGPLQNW
Briefly: FLIPR Ca2+ Flux Assay, CHO cells expressing hOX2R. The class given is cell-based. The conditions noted are these: agonist 70 pM Ala-6,12 orexin-A.

Assay [2] concerns the target T2, human orexin-1 receptor (hOX1R) (Homo sapiens, UniProt O43613).
T2 construct: expressed in transfected cells; host or cells: Chinese hamster ovary (CHO) cells, grown under G418 selection
T2 sequence (O43613 1-425): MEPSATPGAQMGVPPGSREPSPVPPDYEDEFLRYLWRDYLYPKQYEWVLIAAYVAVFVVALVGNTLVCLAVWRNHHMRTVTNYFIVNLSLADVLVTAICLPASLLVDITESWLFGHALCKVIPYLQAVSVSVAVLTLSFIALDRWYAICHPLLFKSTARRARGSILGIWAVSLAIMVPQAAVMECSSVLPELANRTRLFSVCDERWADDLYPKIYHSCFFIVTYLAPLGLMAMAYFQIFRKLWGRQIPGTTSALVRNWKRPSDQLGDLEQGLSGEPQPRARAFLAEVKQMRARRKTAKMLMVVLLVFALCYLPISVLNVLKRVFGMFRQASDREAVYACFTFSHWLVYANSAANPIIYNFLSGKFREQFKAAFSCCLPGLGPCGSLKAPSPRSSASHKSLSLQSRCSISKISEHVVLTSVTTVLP
Briefly: FLIPR Ca2+ Flux Assay, CHO cells expressing hOX1R. It is filed as cell-based. The conditions noted are these: agonist 70 pM Ala-6,12 orexin-A.

Turning to `COc1ccnc(O[C@@H]2CC[C@@H](C)N(C(=O)c3cccc(F)c3-n3nccn3)C2)c1CO` [Example 47, (3-Fluoro-2-(2H-1,2,3-triazol-2-yl)phenyl)((2R,5R)-5-((3-(hydroxymethyl)-4-methoxypyridin-2-yl)oxy)-2-methylpiperidin-1-yl)methanone], the results for the IC50 in assay [1] and in assay [2] were 81 nM and 1990 nM, respectively.

`C#C[C@H](O)c1cccnc1O[C@@H]1CC[C@@H](C)N(C(=O)c2ccccc2-n2nccn2)C1` [Example 34, (1S)-1-(2-{[(3R,6R)-6-methyl-1-{[2-(2H-1,2,3-triazol-2-yl)phenyl]carbonyl}piperidin-3-yl]oxy}pyridin-3-yl)prop-2-yn-1-ol]: the figures for the IC50 in assay [1] and in assay [2] were 26 nM and 584 nM, respectively.

As to `C[C@@H]1CC[C@@H](Oc2ncccc2C(C)(C)O)CN1C(=O)c1cccc(F)c1-c1ncccn1` [Example 20, 2-[2-({(3R,6R)-1-[(3-fluoro-2-pyrimidin-2-yl-phenyl)carbonyl]-6-methyl-piperidin-3-yl}oxy)pyridin-3-yl]propan-2-ol], the IC50 in assay [1] stood at 98 nM; in assay [2] it was 609 nM.

Consider `COc1ccnc(O[C@@H]2CC[C@@H](C)N(C(=O)c3ccccc3-n3nccn3)C2)c1CO` [Example 46, (4-Methoxy-2-{[(3R,6R)-6-methyl-1-{[2-(2H-1,2,3-triazol-2-yl)phenyl]carbonyl}piperidin-3-yl]oxy}pyridin-3-yl)methanol], for which the values for the IC50 in assay [1] and in assay [2] were 34 nM and 1170 nM, respectively.

For the compound `C[C@@H]1CC[C@@H](Oc2ncccc2C(C)(C)O)CN1C(=O)c1cc(F)ccc1-n1nccn1` [Example 5, 2-(2-{[(3R,6R)-1-{[5-fluoro-2-(2H-1,2,3-triazol-2-yl)phenyl]carbonyl}-6-methylpiperidin-3-yl]oxy}pyridin-3-yl)propan-2-ol], the IC50 came to 34 nM in assay [1] and 121 nM in assay [2].

As for `C[C@@H]1CC[C@@H](Oc2ncccc2C(C)(C)O)CN1C(=O)c1ccsc1-c1ncccn1` [Example 19, 2-[2-({(3R,6R)-6-Methyl-1-[(2-pyrimidin-2-ylthiophen-3-yl)carbonyl]piperidin-3-yl}oxy)pyridin-3-yl]propan-2-ol], the IC50 in assay [1] came to 13 nM; in assay [2] it was 12 nM.

As for `C[C@@H]1CC[C@@H](Oc2ncccc2C(C)(C)O)CN1C(=O)c1sccc1-c1ncccn1` [Example 24, 2-[2-({(3R,6R)-6-methyl-1-[(3-pyrimidin-2-yl-thiophen-2-yl)carbonyl]piperidin-3-yl}oxy)pyridin-3-yl] propan-2-ol], the results for the IC50 in assay [1] and in assay [2] were 35 nM and 77 nM, respectively.

Take `C[C@@H]1CC[C@@H](Oc2ncccc2C(C)(C)O)CN1C(=O)c1cc(F)ccc1-c1ncccn1` [Example 22, 2-[2-({(3R,6R)-1-[(5-fluoro-2-pyrimidin-2-yl-phenyl)carbonyl]-6-methylpiperidin-3-yl}oxy)pyridin-3-yl]propan-2-ol]: the IC50 came to 82 nM in assay [1] and 140 nM in assay [2].

For `C[C@@H]1CC[C@@H](Oc2ncccc2[C@@H](O)C(F)(F)F)CN1C(=O)c1ccccc1-n1nccn1` [Example 37, (1R)-2,2,2-Trifluoro-1-(2-{[(3R,6R)-6-methyl-1-{[2-(2H-1,2,3-triazol-2-yl)phenyl]carbonyl}piperidin-3-yl]oxy}pyridin-3-yl)ethanol], the values for the half-inhibitory concentration (IC50) in assay [1] and in assay [2] were 18 nM and 55 nM, respectively.

For the compound `C[C@@H]1CC[C@@H](Oc2ncccc2C(C)(C)O)CN1C(=O)c1cccc(F)c1-n1nccn1` [Example 3, 2-(2-{[(3R,6R)-1-{[3-fluoro-2-(2H-1,2,3-triazol-2-yl)phenyl]carbonyl}-6-methylpiperidin-3-yl]oxy}pyridin-3-yl)propan-2-ol], the IC50 in assay [1] was found to be 35 nM; in assay [2], 189 nM.
